Our source for the IC50 values is patent US11022604B2, “Dock derived compound against laminin receptor (37 LR) and uses thereof” (Purdue Research Foundation, priority 2017, dated 2021).

Where two headings read alike, the source gives them in different places.

The experiment concerns PC-3 cells. As to the kind of experiment: BrdU incorporation assay. Type of experiment: cell-based. Conditions: read-out: IC50, inhibition of BrdU incorporation (proliferation). As for the experimental part:
PC-3 cells were treated with 100 nM to 100 μM C3 for 24 hours and BrdU incorporation was quantified using HRP generated luminescence from an antibody pair recognizing BrdU (n=6, mean±SEM). C3 BrdU signal was normalized to a row where PC-3 cells were exposed to 0.5% DMSO (assay conditions). Curve obtained using GraphPAd Prism as described in the methods.
Cell Viability Screen. PC-3, Endo, TC2-Ras, SH-SY5Y, and LNCaP cells were seeded in 96-well plates at 1,500 cells per well using the Scepter cell counter (EMD Millipore). Cells were continuously incubated with compound using a 6-point dose curve: 100, 57.5, 32.4, 18.6, 10.5, and 6.0 μM in their respective complete media. Cell viability was measured by using the cell counting kit-8 (CCK-8, Dojindo). […] CCK-8 absorbance was measured at 450 nm using a GloMax Multimode Reader (Promega). Readings were performed the day after seeding to normalize for variations in cell seeding and after 96 hours of compound treatment. After each reading, CCK-8 media was removed and replaced with media containing compound as described previously. […] As described previously, an initial baseline CCK-8 reading was performed at 24 hours post seeding to correct for variations in seeding density. First, 450 nm values for each well were subtracted from media only readings to correct for baseline absorbance. […]
Background: Dividing cells build labelled thymidine or BrdU into new DNA.

`O=C(c1cc(F)cc2c1OCOC2)N1CCN(C2c3ccccc3-c3ccccc32)CC1` [Compound C3, [4-(9h-fluoren-9-yl)piperazino](6-fluoro-4h-1,3-benzodioxin-8-yl)methanone]: the IC50 by setting is: (24 hours) 10 µM; (Homo sapiens, PC-3, 24 h) 10.1 µM.
